These results are taken from article PMC6358721, “Engineering of B800 bacteriochlorophyll binding site specificity in the Rhodobacter sphaeroides LH2 antenna” (Biochimica et Biophysica Acta. Bioenergetics, 2019).

In this assay the target is T1, LH2 (light-harvesting 2 complex), B800 site; B850 LH2 when B800-depleted (Cereibacter sphaeroides, UniProt Q3J144+Q3J145).
T1 construct: gene pucA; native complex purified from Rba. sphaeroides membranes (LDAO, then beta-DDM); B800 BChl a removed with LDS for reconstitution; B850 BChl a and carotenoid retained; ring of nine alpha-beta pairs; R30L/R30F genomic at the puc1BA locus, R30E/R30M from pRK415 vectors, in delta-puc1BA delta-puc2BA delta-pufBALMX
Description: reconstitution of B800-depleted LH2, absorption spectra. Format: binding. The settings on record: 20 mM Tris pH 8, 0.5% beta-DDM, 12 uM pigment, room temperature.

Each structure is given as a SMILES string.

T1 sequence (Q3J144 whole entry): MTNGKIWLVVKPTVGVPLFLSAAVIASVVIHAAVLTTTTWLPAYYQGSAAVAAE
T1 sequence (Q3J145 2-51): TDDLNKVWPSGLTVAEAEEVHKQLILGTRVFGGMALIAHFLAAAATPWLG

With `C=Cc1c(C=O)c2[n]3c1C=C1N=C(C=c4c(C)c5c([n]4[Mg]3)=C(C3=NC(=C2)[C@@H](C)[C@@H]3CCC(=O)OC/C=C(\C)CCC[C@H](C)CCC[C@H](C)CCCC(C)C)[C@@H](C(=O)OC)C5=O)C(CC)=C1C` [Chl f], the “reconstitution of B800-depleted LH2, absorption spectra” value is “we generated additional novel reconstitutions using Chl f”.
